Laboratory results taken from patent US20060100155A1, “Method for the therapeutic management of endometriosis” (priority 1999, published 2006).
Non-standard residues stand in square brackets, D forms with d. Residues, ends and D or L forms follow the SMILES beside them. dPhe(4-Cl) = N[C@H](Cc1ccc(Cl)cc1)C(=O)O; d2Nal = N[C@H](Cc1ccc2ccccc2c1)C(=O)O; dCit = NC(=O)NCCC[C@@H](N)C(=O)O; d3Pal = N[C@H](Cc1cccnc1)C(=O)O

System: patients with confirmed endometriosis
Experiment: Weekly s.c. administration of 3 mg LHRH antagonist for 8 weeks to patients with confirmed endometriosis
Assay type: in vivo, human
Conditions: for hot flushes or other (estradiol) withdrawal symptoms / proliferation of the endometrium (histological biopsies): 3 mg weekly for 8 weeks; for proliferation of the endometrium (histological biopsies): at the end of treatment
Description: The weekly administration of an adequate dose of an LHRH antagonist, e.g. 3 mg Cetrotide® s.c./per week over a period of eight weeks leads to a controlled suppression of estrogen secretion so that serum concentrations between about 35 pg/ml and about 80 pg/ml, preferably between about 45-75 pg/ml, more preferably between about 50-75 pg/ml are obtained. […] Also the development of osteoporosis can be avoided.

`CC(=O)N[C@H](Cc1ccc2ccccc2c1)C(=O)N[C@H](Cc1ccc(Cl)cc1)C(=O)N[C@H](Cc1cccnc1)C(=O)N[C@@H](CO)C(=O)N[C@@H](Cc1ccc(O)cc1)C(=O)N[C@H](CCCNC(N)=O)C(=O)N[C@@H](CC(C)C)C(=O)N[C@@H](CCCNC(=N)N)C(=O)N1CCC[C@H]1C(=O)N[C@H](C)C(N)=O` [Cetrorelix acetate] (Ac-[d2Nal][dPhe(4-Cl)][d3Pal]SY[dCit]LRP[dA]-NH2) was tested, and the ovarian cyst formation (3 mg s.c. weekly for 8 weeks) was “No ovarian cyst formation occurred”, the “progress of the disease confirmed by 2nd look laparascopy” value (3 mg s.c. weekly for 8 weeks) was “without any progress of the disease” and the “hot flushes or other (estradiol) withdrawal symptoms” value was “avoiding any hot flushes or other withdrawal symptoms”. For the same compound, the “proliferation of the endometrium (histological biopsies)” value was “no proliferation of the endometrium”, the “proliferation of the endometrium (histological biopsies)” value (listed as Cetrorelix) was “without proliferation of the endometrium” and the “hot flushes or other (estradiol) withdrawal symptoms” value (listed as Cetrorelix) was “without any signs of estradiol withdrawal symptoms”.
